Measurements from patent US12577217B2, “15-PGDH inhibitor” (KYORIN Pharmaceutical Co., Ltd., priority 2019, dated 2026).

Target: T1, recombinant human 15-PGDH (Homo sapiens, UniProt P15428)
T1 construct: purchased R&D Systems
T1 sequence (P15428 1-266): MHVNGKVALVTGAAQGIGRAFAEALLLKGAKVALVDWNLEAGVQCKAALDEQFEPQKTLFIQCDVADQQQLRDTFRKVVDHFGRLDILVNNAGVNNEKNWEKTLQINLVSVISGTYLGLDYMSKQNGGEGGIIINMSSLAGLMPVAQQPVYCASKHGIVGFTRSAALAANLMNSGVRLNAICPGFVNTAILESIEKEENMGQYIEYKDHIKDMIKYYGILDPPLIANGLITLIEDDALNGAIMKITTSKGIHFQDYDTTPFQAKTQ
Assay: 15-PGDH enzyme inhibition test
Type: biochemical
Conditions: 4 nM recombinant human 15-PGDH, 30 μM PGE2, 1 mM NAD+, 60 minutes after starting the reaction; read-out: IC50 Value
Description: 15-PGDH Enzyme Inhibition Test
A test compound and 4 nM recombinant human 15-PGDH (R&D Systems) were added, in 50 mM Tris-HCl (pH 8.0) containing 0.01% TWEEN 20 (Sigma) and 0.01% bovine gamma globulin (Sigma), to a 384-well Flat Bottom Black plate (Corning, 3820), and the resultant was allowed to stand still at room temperature for 12 minutes, and 30 μM PGE2 (Cayman Chemical) and 1 mM NAD+ (Sigma) were added thereto to start the reaction. 60 minutes after starting the reaction, measurement was performed using Synergy 2 (BioTeck) at an excitation wavelength of 340 nm and a fluorescence wavelength of 440 nm. Assuming that a fluorescence signal obtained with an assay buffer added instead of the test compound and NAD+ was 100% and that a signal obtained with NAD+ added was 0%, a concentration corresponding to 50% inhibition plotted on a concentration-reaction curve of the test compound was defined as an IC50 value. Incidentally, in the following tables, an IC50 value smaller than 10 nM was shown as +++, an IC50 value equal to or larger than 10 nM and smaller than 100 nM was shown as ++, and an IC50 value equal to or larger than 100 nM was shown as +.

| Structure (SMILES) | IC50 |
| --- | --- |
| CC1c2cc(N3CCOc4cc(C(=O)N5CCCCC5)cnc43)ccc2C(=O)N1C (single isomer, unassigned) [16-1 Isomer A] | < 10 nM |
| CC1c2cc(N3CCOc4cc(C(=O)N5CCCCC5)cnc43)ccc2C(=O)N1C (single isomer, unassigned) [16-1 Isomer B, 2,3-Dimethyl-5-(7-(piperidine-1-carbonyl)-2,3-dihydro-4H-pyrido[3,2-b] [1,4]oxazin-4-yl)isoindolin-1-one] | < 10 nM |
| Cn1nc2cc(N3CCOc4cc(C(=O)N5CCCC6CC65)cnc43)ccn2c1=O (single isomer, unassigned) [23-1 Isomer A, 7-(7-(2-Azabicyclo[4,1,0]heptane-2-carbonyl)-2,3-dihydro-4H-pyrido[3,2-b][1,4]oxazin-4-yl)-2-methyl-[1,2,4]triazolo[4,3-a]pyridin-3(2H)-one] | < 10 nM |
| Cn1nc2cc(N3CCOc4cc(C(=O)N5CCCC6CC65)cnc43)ccn2c1=O (single isomer, unassigned) [23-1 Isomer B, 7-(7-(2-Azabicyclo[4,1,0]heptane-2-carbonyl)-2,3-dihydro-4H-pyrido[3,2-b][1,4]oxazin-4-yl)-2-methyl-[1,2,4]triazolo[4,3-a]pyridin-3(2H)-one] | < 10 nM |
| Cn1nc2cc(N3CCOc4cc(C(=O)N5CCCC(C)(F)C5)cnc43)ccn2c1=O (single isomer, unassigned) [23-2 Isomer A] | < 10 nM |
| Cn1nc2cc(N3CCOc4cc(C(=O)N5CCCC(C)(F)C5)cnc43)ccn2c1=O (single isomer, unassigned) [23-2 Isomer B] | < 10 nM |
| COC(=O)c1ccc(N2CCOc3cc(C(=O)N4CCCCC4)ccc32)cc1 [Example 1-7] | < 10 nM |
| N#Cc1ccc(N2CCOc3cc(C(=O)N4CCC(F)(F)CC4)ccc32)cc1 [Example 1-17] | < 10 nM |
| O=C(c1ccc2c(c1)OCCN2c1ccccc1)N1CCCCC1 [Example 1-18] | < 10 nM |
| Cn1oc2cc(N3CCOc4cc(C(=O)N5CCCCC5)cnc43)ccc2c1=O [Example 1-19] | < 10 nM |
| COc1noc2cc(N3CCOc4cc(C(=O)N5CCCCC5)cnc43)ccc12 [Example 1-20] | < 10 nM |
| Cn1nc2cc(N3CCOc4cc(C(=O)N5CCCCC5)cnc43)ccn2c1=O [Example 1-21] | < 10 nM |
| COCn1nc2cc(N3CCOc4cc(C(=O)N5CCCCC5)cnc43)ccn2c1=O [Example 1-22] | < 10 nM |
| CN1Cc2cc(N3CCOc4cc(C(=O)N5CCCCC5)cnc43)ccc2C1=O [Example 1-23] | < 10 nM |
| COC(=O)c1cc2sc(N3CCOc4cc(C(=O)N5CCCCC5)cnc43)cc2s1 [Example 1-24] | < 10 nM |
| Cn1nc2cc(N3CCOc4cc(C(=O)N5CCCCC5)ccc43)ccn2c1=O [Example 1-25] | < 10 nM |
| Cc1cn2ccc(N3CCOc4cc(C(=O)N5CCCCC5)cnc43)cc2n1 [Example 1-26] | 10 to 100 nM |
| CC(C)n1nc2cc(N3CCOc4cc(C(=O)N5CCCCC5)cnc43)ccn2c1=O [Example 1-27] | < 10 nM |
| COCCn1nc2cc(N3CCOc4cc(C(=O)N5CCCCC5)cnc43)ccn2c1=O [Example 1-28] | < 10 nM |
| Cn1nc2c(Cl)c(N3CCOc4cc(C(=O)N5CCCCC5)cnc43)ccn2c1=O [Example 1-29] | < 10 nM |
| O=C(c1cnc2c(c1)OCCN2c1ccn2c(=O)[nH]nc2c1)N1CCCCC1 [Example 1-30] | < 10 nM |
| O=C(c1cnc2c(c1)OCCN2c1ccn2c(=O)n(Cc3ccccc3)nc2c1)N1CCCCC1 [Example 1-31] | < 10 nM |
| O=C(c1cnc2c(c1)OCCN2c1ccn2c(=O)n(Cc3cccnc3)nc2c1)N1CCCCC1 [Example 1-32] | < 10 nM |
| CN(C)CCn1nc2cc(N3CCOc4cc(C(=O)N5CCCCC5)cnc43)ccn2c1=O [Example 1-33] | < 10 nM |
| O=C(c1cnc2c(c1)OCCN2c1ccn2c(=O)n(Cc3ccncc3)nc2c1)N1CCCCC1 [Example 1-34] | < 10 nM |
| O=C(c1cnc2c(c1)OCCN2c1ccn2c(=O)n(-c3ccccn3)nc2c1)N1CCCCC1 [Example 1-35] | < 10 nM |
| O=C(c1cnc2c(c1)OCCN2c1ccn2c(=O)n(CC3COC3)nc2c1)N1CCCCC1 [Example 1-36] | < 10 nM |

Next, values leading:

| IC50 | Structure (SMILES) |
| --- | --- |
| < 10 nM | COc1ccc(CN2Cc3cc(N4CCOc5cc(C(=O)N6CCCCC6)cnc54)ccc3C2=O)cc1 [Example 1-37] |
| < 10 nM | Cn1cnc2cc(N3CCOc4cc(C(=O)N5CCCCC5)cnc43)cnc2c1=O [Example 1-38] |
| 10 to 100 nM | Cn1cnc2cc(N3CCOc4cc(C(=O)N5CCCCC5)cnc43)ncc2c1=O [Example 1-39] |
| < 10 nM | COC(=O)Cn1nc2cc(N3CCOc4cc(C(=O)N5CCCCC5)cnc43)ccn2c1=O [Example 1-40] |
| < 10 nM | COCn1nc2cc(N3CCOc4cc(C(=O)N5CCC[C@H](C)C5)cnc43)ccn2c1=O [Example 1-41] |
| < 10 nM | C[C@H]1CCCN(C(=O)c2cnc3c(c2)OCCN3c2ccn3c(=O)[nH]nc3c2)C1 [Example 1-42] |
| < 10 nM | COCn1nc2cc(N3CCOc4cc(C(=O)N5CCC(F)(F)CC5)cnc43)ccn2c1=O [Example 1-43] |
| < 10 nM | CCOCn1nc2cc(N3CCOc4cc(C(=O)N5CCC(F)(F)CC5)cnc43)ccn2c1=O [Example 1-44] |
| < 10 nM | CN1Cc2cc(N3CCOc4cc(C(=O)N5CCC(F)(F)CC5)cnc43)cnc2C1=O [Example 1-45] |
| 10 to 100 nM | CN1Cc2cc(N3CCOc4cc(C(=O)N5CCC(F)(F)CC5)cnc43)ncc2C1=O [Example 1-46] |
| < 10 nM | COCCn1nc2cc(N3CCOc4cc(C(=O)N5CCC(F)(F)CC5)cnc43)ccn2c1=O [Example 1-47] |
| < 10 nM | CCOCCn1nc2cc(N3CCOc4cc(C(=O)N5CCC(F)(F)CC5)cnc43)ccn2c1=O [Example 1-48] |
| < 10 nM | COCCN1Cc2cc(N3CCOc4cc(C(=O)N5CCC(F)(F)CC5)cnc43)ccc2C1=O [Example 1-49] |
| < 10 nM | CCOCCN1Cc2cc(N3CCOc4cc(C(=O)N5CCC(F)(F)CC5)cnc43)ccc2C1=O [Example 1-50] |
| 10 to 100 nM | CCOCCN1Cc2cc(N3CCOc4cc(C(=O)N5CCC(F)(F)CC5)cnc43)ncc2C1=O [Example 1-51] |
| < 10 nM | COCn1nc2cc(N3CCCOc4cc(C(=O)N5CCCCC5)cnc43)ccn2c1=O [Example 1-52] |
| < 10 nM | COCn1nc2cc(N3CCCc4cc(C(=O)N5CCCCC5)cnc43)ccn2c1=O [Example 1-53] |
| < 10 nM | CCn1nc2cc(N3CCCc4cc(C(=O)N5CCCCC5)cnc43)ccn2c1=O [Example 1-54] |
| < 10 nM | COCCn1nc2cc(N3CCCc4cc(C(=O)N5CCCCC5)cnc43)ccn2c1=O [Example 1-55] |

| IC50 | Structure (SMILES) |
| --- | --- |
| 10 to 100 nM | CN1Cc2cc(N3CCCc4cc(C(=O)N5CCCCC5)cnc43)ncc2C1=O [Example 1-56] |
| < 10 nM | CCOCn1nc2cc(N3CCCc4cc(C(=O)N5CCCCC5)cnc43)ccn2c1=O [Example 1-57] |
| < 10 nM | O=C(c1cnc2c(c1)CCCN2c1ccn2c(=O)n(CC3COC3)nc2c1)N1CCCCC1 [Example 1-58] |
| < 10 nM | CNC(=O)c1ccc(N2CCCc3cc(C(=O)N4CCCCC4)cnc32)cc1F [Example 1-59] |
| < 10 nM | COCCNC(=O)c1ccc(N2CCCc3cc(C(=O)N4CCCCC4)cnc32)cc1F [Example 1-60] |
| < 10 nM | O=C(NCC1COC1)c1ccc(N2CCCc3cc(C(=O)N4CCCCC4)cnc32)cc1F [Example 1-61] |
| < 10 nM | O=C(NC1COC1)c1ccc(N2CCCc3cc(C(=O)N4CCCCC4)cnc32)cc1F [Example 1-62] |
| < 10 nM | CCOCCN1Cc2cc(N3CCCc4cc(C(=O)N5CCCCC5)cnc43)ccc2C1=O [Example 1-63] |
| < 10 nM | COCCN1Cc2cc(N3CCCc4cc(C(=O)N5CCCCC5)cnc43)ccc2C1=O [Example 1-64] |
| < 10 nM | O=C(c1cnc2c(c1)CCCN2c1ccc2c(c1)CN(CC1COC1)C2=O)N1CCCCC1 [Example 1-65] |
| < 10 nM | O=C(c1cnc2c(c1)CCCN2c1ccc2c(c1)CN(C1COC1)C2=O)N1CCCCC1 [Example 1-66] |
| < 10 nM | CN1Cc2cc(N3CCCc4cc(C(=O)N5CCCCC5)cnc43)cnc2C1=O [Example 1-67] |
| < 10 nM | CN1Cc2cc(N3CCCc4cc(C(=O)N5CCCCC5)cnc43)ccc2C1=O [Example 1-68] |
| < 10 nM | CNC(=O)c1ncc(N2CCCc3cc(C(=O)N4CCCCC4)cnc32)cc1F [Example 1-69] |
| < 10 nM | CCOCCn1nc2cc(N3CCCc4cc(C(=O)N5CCCCC5)cnc43)ccn2c1=O [Example 1-70] |
| < 10 nM | COCCOCCn1nc2cc(N3CCCc4cc(C(=O)N5CCCCC5)cnc43)ccn2c1=O [Example 1-71] |
| 10 to 100 nM | COCCN1Cc2cc(N3CCCc4cc(C(=O)N5CCCCC5)cnc43)ncc2C1=O [Example 1-72] |
| 10 to 100 nM | CCOCCN1Cc2cc(N3CCCc4cc(C(=O)N5CCCCC5)cnc43)ncc2C1=O [Example 1-73] |
| 10 to 100 nM | O=C(c1cnc2c(c1)CCCN2c1cc2c(cn1)C(=O)N(C1COC1)C2)N1CCCCC1 [Example 1-74] |
